Test system: Male BALB/c mice
Test: Murine atopic dermatitis model by multiple oxazolone challenges
Assay type: in vivo
Settings: result in words
Experimental: Murine Atopic Dermatitis Model by Multiple Oxazolone Challenges
Method: Male BALB/c mice (n=5-7 per group) were sensitised on Day 1 by the topical application of 50 μL of 1% oxazolone in acetone/olive oil (4:1) on the abdominal skin. On days 8, 10, 12, 15, 17, 19, 22, 24 and 26, animals received repeated challenges with 25 μL of 0.2% oxazolone, applied topically on the inner side of their right ear. On days 8-26, 25 μL of a solution of the test compound (prepared by dissolving compound in acetone/olive oil 4:1 and heating) at the desired concentration were administered on the outer side of the right ears. On days 12, 19 and 26, right ear thickness was determined with a calliper one hour after oxazolone application.

CNC1CN(c2cc(CNCC3CC3)nc(N)n2)C1 [Example 1b, 4-((Cyclopropylmethylamino)methyl)-6-(3-(methylamino)azetidin-1-yl)pyrimidin-2-amine]
in vivo activity in the atopic dermatitis model of example 10: outstanding in vivo activity

CNC1CN(c2cc(CNC3CCCC3)nc(N)n2)C1 [Example 1t, 4-((Cyclopentylamino)methyl)-6-(3-(methylamino)azetidin-1-yl)pyrimidin-2-amine]
in vivo activity in the atopic dermatitis model of example 10: outstanding in vivo activity

Source: patent US8901146B2, “Aminoalkylpyrimidine derivatives as histamine H4 receptor antagonists” (Medicis Pharmaceutical Corporation, priority 2009, dated 2014)
